The source of these data is patent US20260109721A1, “IONIZABLE CATIONIC LIPIDS INCORPORATING SILICON: SYNTHESIS AND LNP FORMULATION” (priority 2023, published 2026).

One series concerns HeLa cells. Briefly: Cell viability assessment with resazurin assay (Method A). The series is classed as cell-based. On the procedure:
(§1) The synthesized lipids were tested in term of in vitro transfection efficacy and toxicity on HeLa cells. In order to perform the mentioned biological tests, appropriate LNPs had to be formulated from the synthesized lipids. The formulation technique was different in Method A and B. The particle size, polydispersity index (PDI) and zeta potential of resulting LNPs were determined by means of Dynamic Light Scattering technique (DLS). Prior to biological testing the encapsulation efficiency (EE) of the loaded LNPs was determined by using RiboGreen RNA assay. In case of Method A Luc mRNA while in case of Method B GFP mRNA was transfected into the cells. In parallel with the transfection experiments, toxicity of the investigated LNPs was determined, in case of Method A resazurin assay while in case of Method B MTT assay was used. Additionally, the toxicity of the lipids was investigated on HepG2 cells and IC50 values were determined.
This protocol is used to determine the metabolic activity of cells as a measure for cell viability after exposure to potentially toxic substances. Resazurin is converted in mitochondria by reduction to resorufin, which has a much higher fluorescence at ˜600 nm compared to unconverted resazurin. A lower amount/percentage of conversion is correlated with reduced cellular metabolism and indirectly to cellular death and toxicity. Care must be taken with interpretation of the read-out, as 50% reduction in resazurin conversion may mean 50% reduction of cellular metabolism of 100% alive cells, or 50% of cells dead, and any combination in between.
• 1. Prepare 0.25 mg/ml stock solution resazurin in fresh cell culture medium. Resazurin is auto-reducing over time in solution, especially in medium, and fresh stocks should be prepared every 2-3 days. Stocks should be stored at 4° C. and protected from light. For HeLa cells, DMEM/F12 with 10% FCS is used. • 2. Dilute stock solution 10× in fresh cell culture medium to 0.025 mg/ml->ready for application on cells. For HeLa cells, DMEM/F12 with 10% FCS is used. • 3. Collect 96-well plate and replace cell-culture spent medium with 100 μl per well resazurin solution. Add some resazurin solution for background measurement in wells not containing cells. • 4. Incubate for 50 minutes in incubator at 37° C., 5% CO2, 95% RH. • 5. Transfer resazurin solution to a fresh 96- or 384-well plate. • 6. Measure in plate reader using 540/25 nm (excitation) and 610/40 nm (emission) using standard settings (PTM low/OD-1.0). • 7. Subtract the average background measurement from all samples. Set the average of the negative controls (well receiving OptiMEM only during transfection) to 100% and express all values as percentage of the control activity. Typically, at lower levels of treatment, elevation of metabolic activity is shown, whereas for toxic substances, at toxic concentrations sigmoidal curves can be obtained, with lower activity indicating higher toxicity.
On the technique in general: The colour change of resazurin is a common sign of viable cells or microbes.

For a further series, the system named is HepG2 cell line. Briefly: In vitro toxicity study on HepG2 cell line (resazurin, viability and IC50). The series is classed as cell-based, human. As to conditions: for IC50: lipid toxicity, HepG2, 48 h post-treatment, 6.25-800 μM, read-out: IC50 value, μM (on HepG2 cell). The method, then: as §1
HepG2 cell line (human hepatocellular carcinoma) were maintained in DMEM medium supplemented with 10% FBS. Cell toxicity measurements were carried out in 384-well microtiter plates with 1000 cells seeded in each well. Test measurements were carried out in triplicate, and control measurements in quadruplicate. After an overnight incubation, the cells were treated with an increasing concentration of the test compounds (6.25, 12.5, 25, 50, 100, 200, 400, 800 μM). […] 48 h post-treatment, following visual inspection under an inverted microscope, cell viability was measured by resazurin assay. Viability of treated cells was calculated relative to that of ethanol vehicle controls. Concentration response curves (CRCs) were obtained and corresponding IC50 values were calculated where applicable and are shown in Table 9.
Resazurin reagent (Sigma-Aldrich) was dissolved in PBS (pH 7.4) at 0.15 mg/ml concentration, 0.22 μm filtered and aliquoted at −20° C., 10 μl resazurin stock solution was added to wells. After 5 hours incubation at 37° C. under 5% CO2 fluorescence (530 nm excitation/580 nm emission) was recorded on a multimode microplate reader.

The mark [1] stands for this setting: HepG2 cells, 6.25 μM lipid, 48 h post-treatment, resazurin, relative to ethanol vehicle controls.
Where [2] appears, read: HepG2 cells, 12.5 μM lipid, 48 h post-treatment, resazurin, relative to ethanol vehicle controls.
The mark [3] stands for this setting: HepG2 cells, 25 μM lipid, 48 h post-treatment, resazurin, relative to ethanol vehicle controls.
The mark [4] stands for this setting: HepG2 cells, 50 μM lipid, 48 h post-treatment, resazurin, relative to ethanol vehicle controls.
Setting [5] is: HepG2 cells, 100 μM lipid, 48 h post-treatment, resazurin, relative to ethanol vehicle controls.
[6] abbreviates: HepG2 cells, 200 μM lipid, 48 h post-treatment, resazurin, relative to ethanol vehicle controls.
[7] abbreviates: HepG2 cells, 400 μM lipid, 48 h post-treatment, resazurin, relative to ethanol vehicle controls.
Setting [8] is: HepG2 cells, 800 μM lipid, 48 h post-treatment, resazurin, relative to ethanol vehicle controls.

Like-named read-outs stand apart in the source and are kept apart here.

Usually IC50 stands for the concentration needed to halve the response being measured.

As to `CCCCCCCCC(CCCCCC)C(=O)OCCCCCCN(CCCCO)CCCCCCOC(=O)C(CCCCCC)CCCCCCCC` (stereo not drawn) [ALC-0315, reference compound], in the series on HeLa cells, the “Cell Viability % (Average metabolic rate over all doses, Resazurin)” value (from here on “Cell Viability %”) came out at 97%. Also, the “Viability (%) at different lipid concentrations, mean” value in the series on HepG2 cell line (setting [1]) is given as 76.8%; in the series on HepG2 cell line (setting [2]), 97.4%; in the series with HepG2 cell line (setting [3]), 95.4%; in the series on HepG2 cell line (setting [4]) it was 91.6%; with HepG2 cell line (setting [5]), 84.2%; in the series on HepG2 cell line (setting [6]), 58.9%. In addition, the “Viability (%) at different lipid concentrations, mean” value with HepG2 cell line (setting [7]) is 42.9%; with HepG2 cell line (setting [8]), 20.9%. The IC50 in the series on HepG2 cell line (resazurin) was found to be 299 µM.

For `CCCCC/C=C\C/C=C\CCCCCCCCOC(CCCCCN(CCO)CCO)O[Si](C)(C)OCCCCCCCC/C=C\C/C=C\CCCCC` (stereo not drawn) [Example 39, (21Z,24Z)-3-(2-hydroxyethyl)-11,11-dimethyl-9-(((9Z,12Z)-octadeca-9,12-dien-1-yl)oxy)-10,12-dioxa-3-aza-11-silatriaconta-21,24-dien-1-ol], the “Cell Viability %” value in the series with HeLa cells (human) stood at 102%. Moreover, the IC50 in the series on HepG2 cell line (Homo sapiens, resazurin) is 667 µM. Moreover, the “Viability (%) at different lipid concentrations, mean” value in the series on HepG2 cell line (human, 48 h, 6.25 μM) is recorded as 99.8%; in the series with HepG2 cell line (human, 48 h, 12.5 μM), 97.8%; with HepG2 cell line (human, 48 h, 25 μM) it was 99.4%; with HepG2 cell line (human, 48 h, 50 μM) it was 98.6%; in the series on HepG2 cell line (human, 48 h, 100 μM), 100.3%; with HepG2 cell line (human, 48 h, 200 μM), 106.1%. Besides, the “Viability (%) at different lipid concentrations, mean” value came out at 83.4% with HepG2 cell line (human, 48 h, 400 μM) and 35.8% in the series with HepG2 cell line (human, 48 h, 800 μM).

Regarding `CCCCC/C=C\C/C=C\CCCCCCCCO[Si](C)(C)OC(CCCCCCC/C=C\C/C=C\CCCCC)OCCCCCCN(CCO)CCO` (stereo not drawn) [Example 40, (23Z,26Z)-11-((8Z,11Z)-heptadeca-8,11-dien-1-yl)-3-(2-hydroxyethyl)-13,13-dimethyl-10,12,14-trioxa-3-aza-13-siladotriaconta-23,26-dien-1-ol], in the series on HeLa cells (human), the “Cell Viability %” value is listed as 100%. In addition, the “Viability (%) at different lipid concentrations, mean” value with HepG2 cell line (setting [1]) amounted to 100.8%; in the series with HepG2 cell line (setting [2]) it was 97.6%; with HepG2 cell line (setting [3]), 98.9%; with HepG2 cell line (setting [4]), 101.8%; in the series with HepG2 cell line (setting [5]), 109.7%; with HepG2 cell line (setting [6]), 115.3%. Moreover, the “Viability (%) at different lipid concentrations, mean” value with HepG2 cell line (setting [7]) was found to be 102.0%; in the series on HepG2 cell line (setting [8]), 89.0%. Moreover, in the series on HepG2 cell line (Homo sapiens, resazurin), the IC50 is greater than 800 µM.

Consider `CCCCCCCC/C=C\CCCCCCCCOC(CCCCCCCCCCCCCCC)O[Si](C)(C)OCCCCCCN(CCO)CCO` (stereo not drawn) [Example 41, (Z)-3-(2-hydroxyethyl)-11,11-dimethyl-13-pentadecyl-10,12,14-trioxa-3-aza-11-siladotriacont-23-en-1-ol], for which, in the series on HeLa cells (human), the “Cell Viability %” value turned out to be 98%. In addition, the “Viability (%) at different lipid concentrations, mean” value in the series with HepG2 cell line (setting [1]) amounted to 99.0%; with HepG2 cell line (setting [2]) it was 97.6%; in the series on HepG2 cell line (setting [3]), 102.6%; in the series with HepG2 cell line (setting [4]), 111.2%; in the series on HepG2 cell line (setting [5]) it was 113.2%; in the series on HepG2 cell line (setting [6]) it was 109.5%. Also, the figures for the “Viability (%) at different lipid concentrations, mean” value in the series on HepG2 cell line (setting [7]) and in the series with HepG2 cell line (setting [8]) were 91.5% and 90.7%, respectively. For the same compound, in the series on HepG2 cell line (Homo sapiens, resazurin), the IC50 was greater than 800 µM.

In the case of `CCCCCCCC/C=C\CCCCCCCC(OCCCCCCCCCCCCCCCC)O[Si](C)(C)OCCCCCCN(CCO)CCO` (stereo not drawn) [Example 42, (Z)-13-(heptadec-8-en-1-yl)-3-(2-hydroxyethyl)-11,11-dimethyl-10,12,14-trioxa-3-aza-11-silatriacontan-1-ol], the “Cell Viability %” value in the series with HeLa cells (human) was 98%. In addition, the “Viability (%) at different lipid concentrations, mean” value in the series with HepG2 cell line (setting [1]) stood at 105.1%; in the series with HepG2 cell line (setting [2]), 100.0%; in the series with HepG2 cell line (setting [3]), 98.9%; with HepG2 cell line (setting [4]), 102.2%; in the series with HepG2 cell line (setting [5]), 107.6%; with HepG2 cell line (setting [6]), 117.1%. Moreover, the “Viability (%) at different lipid concentrations, mean” value is 104.2% with HepG2 cell line (setting [7]) and 99.8% in the series with HepG2 cell line (setting [8]). For the same compound, the half-maximal inhibitory concentration (IC50) in the series on HepG2 cell line (Homo sapiens, resazurin) is greater than 800 µM.

Take `CCCCC/C=C\C/C=C\CCCCCCCCOC(CCCCCCC/C=C\C/C=C\CCCCC)O[Si](C)(C)OCCCCCCN1CCN(CCCCCCO[Si](C)(C)OC(CCCCCCC/C=C\C/C=C\CCCCC)OCCCCCCCC/C=C\C/C=C\CCCCC)CC1` (stereo not drawn) [Example 70, 1,4-bis((20Z,23Z)-10-((8Z,11Z)-heptadeca-8,11-dien-1-yl)-8,8-dimethyl-7,9,11-trioxa-8-silanonacosa-20,23-dien-1-yl)piperazine]: the “Cell Viability %” value with HeLa cells (human) is reported as 99%.

For the compound `CCCCCCCC/C=C\CCCCCCCC(OCC(CCCCCCCC)SCCCCCCCCCC)O[Si](C)(C)OCCCCCCN(CCO)CCO` (stereo not drawn) [Example 73, (Z)-13-(heptadec-8-en-1-yl)-3-(2-hydroxyethyl)-11,11-dimethyl-16-octyl-10,12,14-trioxa-17-thia-3-aza-11-silaheptacosan-1-ol], in the series on HeLa cells (human), the “Cell Viability %” value was found to be 107%.

Consider `CCCCC/C=C\C/C=C\CCCCCCCCO[Si](C)(C)OC(CCCCCCC/C=C\CCCCCCCC)OCCCN(C)C` (stereo not drawn) [Example 81, (17Z,20Z)-5-((Z)-heptadec-8-en-1-yl)-N,N,7,7-tetramethyl-4,6,8-trioxa-7-silahexacosa-17,20-dien-1-amine], for which, in the series on HeLa cells (human), the “Cell Viability %” value is 100%.

Take `CCCCC/C=C\C/C=C\CCCCCCCCOC(CCCCCCC/C=C\C/C=C\CCCCC)O[Si](C)(C)O[Si](C)(C)CCCCCCN(CCO)CCO` (stereo not drawn) [Example 82, (24Z,27Z)-14-((8Z,11Z)-heptadeca-8,11-dien-1-yl)-3-(2-hydroxyethyl)-10,10,12,12-tetramethyl-11,13,15-trioxa-3-aza-10,12-disilatritriaconta-24,27-dien-1-ol]: the “Cell Viability %” value in the series on HeLa cells (human) is 97%.
